Measurements reported in article PMC7180617, “Biological Evaluation of 3-Benzylidenechromanones and Their Spiropyrazolines-Based Analogues” (Molecules, 2020).

Experiments:
NALM-6 cells = test: MTT cytotoxicity assay, NALM-6; format: cell-based, human; conditions: Homo sapiens, NALM-6, 48 h, MTT, 46 h + 2 h incubation
Procedure: (§1) The first stage of the study used the MTT viability test to determine the cytotoxicity of ten compounds, i.e., 3-arylidenechromanone, 3-arylideneflavanone, spirochromanone and spiro- flavanone analogues, against four human cancer cell lines: HL-60, NALM-6, WM-115 and COLO-205.
(§2) Cytotoxicity was tested against human skin melanoma cells (WM-115, ECACC, Salisbury, UK), two human leukemia cell lines, viz. promyelocytic leukemia (HL-60) and lymphoblastic leukemia (NALM-6), and human colon adenocarcinoma cells (COLO-205). The cell lines COLO-205, WM-115 and HL-60 used in this work came from the ATCC American Type Culture Collection (Manassas, VA, USA), whereas the NALM-6 cell line was purchased from the German Collection of Microorganisms and Cell Cultures (Braunschweig, Germany). The leukaemia cells and colon adenocarcinoma were cultured in RPMI 1640 medium (Invitrogen, Grand Island, NY, USA) supplemented with 10% fetal bovine serum (FBS; Invitrogen) and gentamicin (25 µg/mL; KRKA, Novo Mesto, Slovenia). For melanoma WM-115 cells, Dulbecco’s minimal essential medium (DMEM; Invitrogen) was used. All cell lines were cultured at 37 °C in a humidified atmosphere of 5% CO2 in air.
(§3) For all experiments, the studied compounds were dissolved in DMSO (Sigma-Aldrich) and were further diluted in culture medium to obtain <0.1% DMSO concentration. In each experiment, controls with and without 0.1% DMSO were performed. The cytotoxicity of all compounds and of the reference compounds 4-chromanone and 3-benzylideneflavanone was determined by the MTT assay, i.e., 3-(4,5-dimethylthiazol-2-yl)-2,5-diphenyltetrazolium bromide (Sigma, St. Louis, MO, USA), which measures cellular dehydrogenase activity. Exponentially growing cells were seeded a day before the experiment onto a 96-well microplates (Nunc, Roskilde, Denmark) at a density up to 6–8 × 10^3 cells/well (depending on the cell line). Subsequently, various concentrations of the studied compounds freshly prepared in DMSO and diluted with complete culture medium were added. All compounds were tested for their cytotoxicity at a final concentration of 10^−7–10^−3 M. After 46 h of incubation with the studied compounds, the cells were treated with the MTT reagent and incubation was continued for another two hours. MTT – formazan crystals were dissolved in 20% sodium dodecyl sulphate (SDS, Sigma-Aldrich) and 50% DMF (Sigma-Aldrich) at pH 4.7; following this, absorbance was read at 570 nm on a multifunctional Victor ELISA-plate reader (Perkin Elmer, Turku, Finland). The IC50 values, i.e., the concentration of the test compound required to reduce the cell survival fraction to 50% of controls, were calculated from concentration-response curves and used as a measure of the sensitivity of the cells to a given treatment. As a control, cultured cells were grown in the absence of drugs. The data points represent the means of at least five to ten repeats ± standard deviation (S.D.).

[1] = system: red blood cells (RBC membrane integrity); test: Red blood cell lysis assay; format: cell-based; conditions: 2% RBC suspension, 37 °C, 1 h
Source text: All synthesized compounds with potential biological activity have to be tested for blood compatibility since xenobiotics will react with blood cells upon administration. In this case, biocompatibility refers to the quantification of cellular and plasma components of the blood. The measurement of the integrity of RBC membrane is considered a simple and reliable method for estimating hemocompatibility.
The studies on biological material were approved by the Bioethics Committee of the Medical University of Lodz, Poland (RNN/109/16/KE). The blood samples were obtained from healthy donors at the Blood Donation Centre in Lodz. The procedure for plasma preparation for erythrotoxicity studies was described previously. The influence of synthesized compounds as well as two reference compounds flavanone and chromanone on RBC membrane integrity was performed by lysis assay which was conducted according to our previous protocol. Briefly, 2% RBC suspension in 0.9% NaCl was incubated at 37 °C for one hour with the tested compounds at various concentrations corresponding to their activity towards cancer cell lines or 0.9% NaCl (control). The samples were centrifuged at 3000 rpm for 10 min and the absorbance of the supernatant was measured at 550 nm. The results are presented as percentage of haemolysis where a sample containing 10 μL of 2.0% v/v Triton X-100 was regarded as a positive control contributing to 100% of haemolysis. A sample containing saline solution represented spontaneous haemolysis of RBCs (control). The studies were performed on four biological samples obtained from different blood donors (n = 4). The results are presented as mean ± standard deviation (SD). The coefficient of variability for the method was counted: W = 9.51%, n = 5.

COLO-205 cells = test: MTT cytotoxicity assay, COLO-205; format: cell-based, human; conditions: Homo sapiens, COLO 205, 48 h, 46 h + 2 h incubation
Procedure: as §1, §2, §3

With O=C1/C(=C/c2ccccc2)COc2ccccc21 [Compound 7, (E)-3-benzylidene-chroman-4-one] the IC50 (NALM-6 cells) was 6.83 ± 0.18 µM, the “effect on RBC hemolysis / erythrocyte membrane integrity (in words)” value [1] was “no significant effects on RBC hemolysis were observed up to 35 µM” and the IC50 (COLO-205 cells) was 31 ± 1.4 µM.
